The values below come from patent US11286263B2, “Macrocyclic fluorine substituted indole derivatives” (The Broad Institute, Inc., priority 2017, dated 2022).

“And” between values parts separate entries of the source, which are not always exact repeats. Equal entries are not always repeated. Structures can show the parent of a compound that is named as a salt. Where two headings read alike, the source gives them in different places.

One test concerns the target MCL1 protein (Homo sapiens (Human), UniProt Q07820). Put plainly: PIxEL: protein-protein interaction in permeabilized cells by ELISA (Assay 5). Format: cell-based. The note with it: permeabilized RKO cells, biotin-BIM BH3 peptide, median. Here is the method:
Assay 5 PI×EL: Protein-Protein Interaction in Permeabilized Cells by ELISA
Most MCL1 protein molecules are localized at the mitochondria outer membrane and sequester pro-apoptotic proteins through binding of their BCL2 homology domain 3 (BH3 domain). MEB buffer (150 mM mannitol, 10 mM HEPES pH 7.5, 50 mM KCl, 20 μM EDTA, 20 μM EGTA, 5 mM potassium succinate, 0.1% protease-free BSA (SIGMA) with low dose digitonin (0.002%) permeabilizes plasma membrane while leaves live mitochondria, where MCL1 maintains its native localization and conformation. Unlike biophysical assays (e.g. TR-FRET) that use truncated recombinant MCL1 protein, this assay uses full length endogenous MCL1 protein at mitochondria outer membrane. It measures the interaction between MCL1 protein and biotinylated BIM BH3 peptide. Compounds can compete with BIM BH3 peptide to bind to MCL1 protein. This serum free assay measures the affinity between MCL1 protein and compound in permeabilized cells, therefore it is not affected by serum binding and cell permeability, and can measure the intrinsic compound affinity.
On day 1, RKO colon cancer cell line cells were plated at 0.8 million cells/ml, 100 μl/well in 96-well flat bottom TC plates (Corning). MCL1 antibody (Santa Cruz sc-12756) were diluted at 200 fold (final concentration 1 μg/ml) in carbonate buffer (Thermo Fisher Scientific, pH 9.6), and 50 μl of diluted antibody was added to each well of high bind ELISA plates (SARSTEDT). Each plate was tapped to make sure liquid covering entire bottom of wells and incubate at 37° C. overnight.
On the second day, MCL1 antibody was washed from ELISA plate. 250 μl Odyssey® Blocking Buffer (PBS) (Li-Cor) was added to each well, incubated at room temperature for at least 1 hour, then washed once with 250 μl 1×PBST. Plates with RKO cells were gently washed once with 100 μl/well PBS, once with 100 μl/well MEB buffer without digitonin, then 100 μl of MEB buffer with 0.002% digitonin was gently added to each well. Compounds were added with HP Tecan compound dispenser in 3-fold dilution series, highest dose 30 μM, 10-dose per compound in quadruplicates. Biotin-BIM peptide (synthesized by 21st Century) was added with HP Tecan compound dispenser at 0.2 μM immediately after the addition of compounds. Plates were rocked for 1 hour at room temperature. Then MEB buffer was aspirated and 50 μl of CHAPS buffer (50 mM Tris-Cl, pH 7.4, 150 mM NaCl, 1% CHAPS, 1 mM EDTA, 1 mM EGTA, complete protease inhibitors (Roche), PhosSTOP (Roche)) was added to each well. Plates were rocked for 1 hour at 4° C., then 45 μl cell lysate from each well were transferred to ELISA plates coated with MCL1 antibody. Plates were incubated overnight in the cold room with rocking.
On the third day, ELISA plates were washed once with 250 μl 1×PBST. Streptavidin-poly-HRP (Thermo Fisher Scientific) was diluted to 20 ng/ml in Odyssey blocking buffer plus 0.05% Triton-100, and 100 μl was added to each well of the ELISA plate. Plates were incubated at room temperature for 1 hour with rocking, then washed with 100 μL 1×PBST for 3 times. Each SuperSignal ELISA Femto Maximum Sensitivity substrate was added to a 50-ml tube and mixed, then 100 μl of mixed substrate was added to each well. Plates were shaken for 1 minute then luminescence was measured by Envision plate reader […]. Signal of each well were normalized by no-compound control and no-cell control. IC50 was calculated using Graphic Pad PRISM software.
Background: ELISA stands for enzyme-linked immunosorbent assay.

In a further test the test system is AMO-1. Put plainly: Antiproliferation assay AMO-1 (Assay 7). It is filed as cell-based. Conditions: AMO-1 cells, CellTiter-Glo, single determinations, read-out: IC50 Antiproli AMO-1. Summed up:
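CellTiter-Glo luminescence readout; 72 h compound exposure, 37 °C, humidified; rim wells excluded; time-zero reference plate plated in parallel and read identically.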
(In general: Cellular ATP, detected with luciferase, serves as a proxy for viable cell number.)

The next test addresses MCL-1 (Homo sapiens (Human), UniProt Q07820, K194A/K197A/R201A). The test can be described thus: Protein-compound interaction assay (SPR assay, Assay 8). Format: binding. Conditions: immobilized MBP-MCL-1, 25° C., geometric mean. From the text:
Assay 8 Protein-Compound Interaction Assay (SPR Assay)
The ability of the compounds described in this invention to bind to MCL-1 may be determined using surface plasmon resonance (SPR). This allows for the quantification of binding in terms of the equilibrium dissociation constant (KD [M]), as well as association and dissociation rate constants (kon [1/M 1/s] and koff [1/s], respectively). The measurements may be performed using Biacore® T200 or Biacore® S200 instruments (GE Healthcare).
For SPR measurements, recombinant MCL-1 (amino acids 173-321, N-terminal fused to Maltose Binding Protein (MBP) (SEQ ID 1) purchased from Beryllium (Bedford, Mass., USA)) was immobilized using standard amine coupling (Johnsson B et al, Anal Biochem. 1991 Nov. 1; 198(2):268-77). Briefly, carboxymethylated dextran biosensor chips (Series S Sensor Chip CMS, GE Healthcare) were activated with 1-ethyl-3-(3-dimethylaminopropyl)-carbodiimide hydrochloride (EDC) and N-hydroxysuccinimide (NHS) according to the supplier's instructions. MBP-MCL-1 was diluted in 1×PBS-P+ (GE Healthcare) and injected on the activated chip surface. Subsequently, a solution of 1 M ethanolamine-HCl (GE Healthcare) was injected to block unreacted groups, resulting in approximately 400-2500 response units (RU) of immobilized protein. A reference surface was generated by treatment with NHS-EDC and ethanolamine-HCl. […] For SPR binding-measurements, serial dilutions of compound (eight dilution steps, typically ranging from 0.2 nM up to 1 μM) were injected over immobilized protein. […] Compounds were injected for 60 s followed by a dissociation time of up to 1000 s.
The double-referenced sensorgrams were fit to a simple reversible Langmuir 1:1 reaction mechanism as implemented in the Biacore® T200 and S200 evaluation software (T200 evaluation software version 2.0 and S200 evaluation software version 1.0, GE Healthcare).
A general note: SPR reads the build-up and loss of mass on a sensor chip optically.

One may read the IC50 as the concentration at which inhibition is half-maximal. The Kd is the equilibrium constant for the complex coming apart. A higher Kd goes with weaker binding. Broadly, the kon is the second-order rate constant of association. Usually koff stands for the rate constant with which the complex falls apart.

Chain of MCL1 protein (Q07820 whole entry): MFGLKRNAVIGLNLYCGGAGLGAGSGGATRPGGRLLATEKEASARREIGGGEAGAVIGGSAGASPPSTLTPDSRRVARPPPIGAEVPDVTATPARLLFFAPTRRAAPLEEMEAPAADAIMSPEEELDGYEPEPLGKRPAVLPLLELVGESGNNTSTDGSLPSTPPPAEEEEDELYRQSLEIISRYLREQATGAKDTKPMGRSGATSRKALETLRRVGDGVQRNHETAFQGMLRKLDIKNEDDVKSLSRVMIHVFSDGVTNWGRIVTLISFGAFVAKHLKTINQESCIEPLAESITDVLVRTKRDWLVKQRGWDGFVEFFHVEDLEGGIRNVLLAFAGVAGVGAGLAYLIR
Chain of MCL-1 (Q07820 whole entry K194A/K197A/R201A, looked up): as the sequence (Q07820 whole entry) above, with K194A, K197A, R201A counted along it

In the case of `Cc1c2c(nn1C)COCCCCn1c(C(=O)O)c(CCCOc3ccc(F)c4ccccc34)c3ccc(F)c-2c31` (racemic) [Example 15, (rac)-13-fluoro-1-(3-((4-fluoronaphthalen-1-yl)oxy)propyl)-11,12-dimethyl-4,5,6,7,9,11-hexahydropyrazolo[4′,3′:9,10][1]oxa[6]azacycloundecino[8,7,6-hi]indole-2-carboxylic acid], the IC50 against MCL1 protein stood at 4.16 µM.

`CCc1nn(C)c2c1-c1c(F)ccc3c(CCCOc4cccc5ccccc45)c(C(=O)O)n(c13)CCCCOC2` (racemic) [Example 37, (rac)-12-ethyl-13-fluoro-10-methyl-1-(3-(naphthalen-1-yloxy)propyl)-4,5,6,7,9,10-hexahydro-pyrazolo[4′,3′:9,10][1]oxa[6]azacycloundecino[8,7,6-hi]indole-2-carboxylic acid] yielded an IC50 at MCL1 protein of 7.35 µM.

On to `CCc1nn(C)c2c1-c1c(F)ccc3c(CCCOc4cc(C)c(Cl)c(C)c4)c(C(=O)O)n(c13)CCCCOC2` (racemic) [Example 46, (rac)-1-(3-(4-chloro-3,5-dimethylphenoxy)propyl)-12-ethyl-13-fluoro-10-methyl-4,5,6,7,9,10-hexahydropyrazolo[4′,3′:9,10][1]oxa[6]azacycloundecino[8,7,6-hi]indole-2-carboxylic acid], for which the IC50 with AMO-1 (72 h) came to 9.1 µM; with AMO-1 (Homo sapiens, AMO1, 72 h), 8.17 µM.

As for `CCc1c2c(nn1C)COCCCCn1c(C(=O)O)c(CCCOc3cccc4ccccc34)c3ccc(F)c-2c31` (single isomer, unassigned; enantiomer 1) [Example 7, 3-ethyl-4-fluoro-2-methyl-7-{3-[(naphthalen-1-yl)oxy]propyl}-2,10,11,12,13,15-hexahydro-pyrazolo[4′,3′:9,10][1,6]oxazacycloundecino[8,7,6-hi]indole-8-carboxylic acid-N-ethylethanamine salt (enantiomer 1)], the IC50 amounted to 2.06 µM against MCL1 protein and 1.91 µM in the test on AMO-1 (Homo sapiens, AMO1, 72 h). The molecule also returned a Kd at MCL-1 of 0.0023 µM. The kon on MCL-1 amounted to 6e+06 M⁻¹ s⁻¹. In addition, the koff at MCL-1 (read-out: koff) came out at 0.014 s⁻¹.

As to `Cc1c2c(nn1C)COCCCCn1c(C(=O)O)c(CCCOc3cccc4cc(F)ccc34)c3ccc(F)c-2c31` (single isomer, unassigned; enantiomer 1) [Example 13, 4-fluoro-7-{3-[(6-fluoronaphthalen-1-yl)oxy]propyl}-2,3-dimethyl-2,10,11,12,13,15-hexahydro-pyrazolo[4′,3′:9,10][1,6]oxazacycloundecino[8,7,6-hi]indole-8-carboxylic acid-N-ethylethanamine salt (enantiomer 1)], at MCL1 protein, 0.872 µM corresponded to half-maximal inhibition (IC50). The IC50 with AMO-1 (72 h) is 0.747 µM and 0.564 µM. At MCL-1, the Kd turned out to be 0.00069 µM and the kon amounted to 1.1e+07 M⁻¹ s⁻¹. For the same molecule, on MCL-1 (read-out: koff), the koff stood at 0.0077 s⁻¹.

`Cc1c2c(nn1C)COCCCCn1c(C(=O)O)c(CCCOc3ccc(F)c4ccccc34)c3ccc(F)c-2c31` (single isomer, unassigned; enantiomer 1) [Example 16, 4-fluoro-7-{3-[(4-fluoronaphthalen-1-yl)oxy]propyl}-2,3-dimethyl-2,10,11,12,13,15-hexahydro-pyrazolo[4′,3′:9,10][1,6]oxazacycloundecino[8,7,6-hi]indole-8-carboxylic acid (enantiomer 1)]: the IC50 is 32.3 µM against MCL1 protein and 6.95 µM in the test with AMO-1 (72 h).

In the case of `CCc1c2c(nn1C)COCCCCn1c(C(=O)O)c(CCCOc3ccc(F)c4ccccc34)c3ccc(F)c-2c31` (single isomer, unassigned; enantiomer 1) [Example 27, 3-ethyl-4-fluoro-7-{3-[(4-fluoronaphthalen-1-yl)oxy]propyl}-2-methyl-2,10,11,12,13,15-hexahydropyrazolo[4′,3′:9,10][1,6]oxazacycloundecino[8,7,6-hi]indole-8-carboxylic acid-N-ethylethanamine salt (enantiomer 1)], the IC50 against MCL1 protein was 2.43 µM; in the test with AMO-1 (72 h) it was 1.33 µM and 2.53 µM.

Turning to `CCc1nn(C)c2c1-c1c(F)ccc3c(CCCOc4ccc(F)c5ccccc45)c(C(=O)O)n(c13)CCCCOC2` (single isomer, unassigned; enantiomer 1) [Example 42, 3-ethyl-4-fluoro-7-{3-[(4-fluoronaphthalen-1-yl)oxy]propyl}-1-methyl-1,10,11,12,13,15-hexahydropyrazolo[4′,3′:9,10][1,6]oxazacycloundecino[8,7,6-hi]indole-8-carboxylic acid (enantiomer 1)], the IC50 on MCL1 protein turned out to be 8.91 µM; in the test with AMO-1 (72 h), 6.96 µM.

Turning to `Cc1c2c(nn1C)CNCCCCn1c(C(=O)O)c(CCCOc3cccc4ccccc34)c3ccc(F)c-2c31` (single isomer, unassigned; enantiomer 1) [Example 48, 4-fluoro-2,3-dimethyl-7-{3-[(naphthalen-1-yl)oxy]propyl}-10,11,12,13,14,15-hexahydro-2H-pyrazolo[3′,4′:8,9][1,6]diazacycloundecino[10,11,1-hi]indole-8-carboxylic acid (enantiomer 1)], the IC50 with AMO-1 (72 h) is 2.86 µM.

`CCc1c2c(nn1C)COCCCCn1c(C(=O)O)c(CCCOc3cccc4cc(F)ccc34)c3ccc(F)c-2c31` (single isomer, unassigned; enantiomer 2) [Example 23, 3-ethyl-4-fluoro-7-{3-[(6-fluoronaphthalen-1-yl)oxy]propyl}-2-methyl-2,10,11,12,13,15-hexahydropyrazolo[4′,3′:9,10][1,6]oxazacycloundecino[8,7,6-hi]indole-8-carboxylic acid-N-ethylethanamine salt (enantiomer 2)] had an IC50 at MCL1 protein of 15.1 µM. Besides, on MCL-1, the Kd was determined as 0.027 µM, the dissociation rate constant (koff) was determined as 0.0026 s⁻¹ and the “kon [1/M 1/s]” value is 9.7E4 1/M 1/s.

In the case of “(rac)-1-(3-((2,3-dihydro-1H-inden-4-yl)oxy)propyl)-12-ethyl-13-fluoro-11-methyl-4,5,6,7,9,11-hexahydropyrazolo[4′,3′:9,10][1]oxa[6]azacycloundecino[8,7,6-hi]indole-2-carboxylic acid [Example 30]”, in the test on AMO-1 (72 h), the IC50 amounted to 1.69 µM.
